Experimental data as given in patent US20060069132A1, “Azolecarboxamide herbicides” (priority 2004, published 2006).
Where two headings read alike, the source gives them in different places.

How the values were obtained:
barnyardgrass [1] = assay: Test B pre-/postemergence herbicide test; assay type: in vivo, Echinochloa crus-galli; details: Echinochloa crus-galli; for pest or weed control at 125 g/ha: 125 g ai/ha; for pest or weed control at 500 g/ha: 500 g ai/ha
Procedure, shortened: (§1)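 Response was scored visually 13 to 15 days after treatment against untreated greenhouse controls, 0 meaning no effect and 100 complete control. Formulations (solvent mixture plus surfactant) went onto soil after planting, onto foliage of 1- to 4-leaf plants, and onto 2-leaf plants in a flooded paddy set including rice and barnyardgrass.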

Surinam grass = assay: Test B pre-/postemergence herbicide test; assay type: in vivo, Urochloa decumbens; details: Urochloa decumbens; for pest or weed control at 125 g/ha: 125 g ai/ha; for pest or weed control at 500 g/ha: 500 g ai/ha
Procedure, shortened: (§2)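 Visual rating, 0 (no effect) to 100 (complete control), versus untreated controls after 13–15 d in greenhouse. Pre- and postemergence applications (postemergence plants 2–18 cm, 1–4 leaves); flooded paddy arm at 2-leaf stage. Compounds in non-phytotoxic solvent plus surfactant.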

cocklebur = assay: Test B pre-/postemergence herbicide test; assay type: in vivo, Xanthium strumarium; details: Xanthium strumarium; for pest or weed control at 125 g/ha: 125 g ai/ha; for pest or weed control at 500 g/ha: 500 g ai/ha
Procedure, shortened: as §1

corn = assay: Test B pre-/postemergence herbicide test; assay type: in vivo, Zea mays; details: Zea mays; for plant injury at 125 g/ha: 125 g ai/ha
Procedure, shortened: as §2

large crabgrass = assay: Test B pre-/postemergence herbicide test; assay type: in vivo, Digitaria sanguinalis; details: Digitaria sanguinalis; for pest or weed control at 125 g/ha: 125 g ai/ha; for pest or weed control at 500 g/ha: 500 g ai/ha
Procedure, shortened: as §2

lambsquarters = assay: Test B pre-/postemergence herbicide test; assay type: in vivo, Chenopodium album; details: Chenopodium album, 336 h; for pest or weed control at 125 g/ha: 125 g ai/ha; for pest or weed control at 500 g/ha: 500 g ai/ha
Procedure, shortened: as §2

morningglory = assay: Test B pre-/postemergence herbicide test; assay type: in vivo, Ipomoea coccinea; details: Ipomoea, 336 h; for pest or weed control at 125 g/ha: 125 g ai/ha; for pest or weed control at 500 g/ha: 500 g ai/ha
Procedure, shortened: as §1

velvetleaf = assay: Test B pre-/postemergence herbicide test; assay type: in vivo, Abutilon theophrasti; details: Abutilon theophrasti, 336 h; for pest or weed control at 125 g/ha: 125 g ai/ha; for pest or weed control at 500 g/ha: 500 g ai/ha
Procedure, shortened: as §2

blackgrass = assay: Test B postemergence herbicide test; assay type: in vivo, Alopecurus myosuroides; details: Alopecurus myosuroides, post-emergence, 336 h, postemergence, visual rating, scale 0 (no effect) to 100 (complete control), read-out: Blackgrass plant response rating
Procedure, shortened: (§3)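 Visual control ratings, 0–100 versus untreated controls, taken after 13 to 15 days in the greenhouse. Blackgrass received a postemergence spray at the 1- to 4-leaf stage (2–18 cm); ducksalad, umbrella sedge and barnyardgrass were flooded-paddy treated at 2 leaves.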

wheat = assay: Test B postemergence herbicide test; assay type: in vivo, Triticum aestivum; details: Triticum aestivum, post-emergence, 336 h, postemergence, read-out: Wheat plant response rating
Procedure, shortened: (§4)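 After treating 2-leaf paddy plants or 2–18 cm postemergence plants (1 to 4 leaves) with formulated chemical, researchers kept them in a greenhouse for 13–15 days. Effects were judged visually versus controls: 0 indicates none, 100 total control.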

wild oat = assay: Test B postemergence herbicide test; assay type: in vivo, Avena fatua; details: Avena fatua, post-emergence, 336 h, postemergence, read-out: Oat, Wild plant response rating
Procedure, shortened: as §4

rice = assay: Test B flooded paddy test; assay type: in vivo, Oryza sativa; details: Oryza sativa, 336 h, 1000 g ai/ha, scale 0 to 100 (0 no effect, 100 complete control), read-out: Rice plant response rating
Procedure, shortened: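 Read-out: visual comparison with controls, scored 0 to 100, where 100 means complete control and 0 no effect. Formulated chemicals were applied postemergence to plants 2–18 cm tall (1- to 4-leaf), or to flooded-paddy plants at the 2-leaf stage, then held 13 to 15 days under glass.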

[2] = tested on: small flower umbrella sedge; assay: Test B flooded paddy test; assay type: in vivo, Cyperus difformis; details: Cyperus difformis, 336 h, 1000 g ai/ha, scale 0 to 100 (0 no effect, 100 complete control), read-out: Sedge, Umbrella plant response rating
Procedure, shortened: as §3

ducksalad = assay: Test B flooded paddy test; assay type: in vivo, Heteranthera limosa; details: Heteranthera limosa, 336 h, 1000 g ai/ha, scale 0 to 100 (0 no effect, 100 complete control), read-out: Ducksalad plant response rating
Procedure, shortened: as §3

barnyardgrass [3] = assay: Test B flooded paddy test; assay type: in vivo, Echinochloa crus-galli; details: Echinochloa crus-galli, 336 h, 1000 g ai/ha, scale 0 to 100 (0 no effect, 100 complete control), read-out: Barnyardgrass plant response rating
Procedure, shortened: as §3

[4] = post-emergence, postemergence, visual rating, scale 0 (no effect) to 100 (complete control), read-out: Barnyardgrass plant response rating
[5] = post-emergence, postemergence, visual rating, scale 0 (no effect) to 100 (complete control), read-out: Cocklebur plant response rating
[6] = 125 g ai/ha, visual rating, scale 0 (no effect) to 100 (complete control)
[7] = 500 g ai/ha, scale 0 to 100, 0 is no effect, 100 is complete control

CCN1N=C(C(C)(C)C)CC1C(=O)Nc1cc(C(=O)N(C)C)ccc1F (stereo not drawn) [Compound 268, N-[5-[(dimethylamino)carbonyl]-2-fluorophenyl]-3-(1,1-dimethylethyl)-1-ethyl-4,5-dihydro-1H-pyrazole-5-carboxamide]
0%: pest or weed control at 125 g/ha (barnyardgrass [1]; [4]) | pest or weed control at 125 g/ha (large crabgrass; post-emergence, postemergence, visual rating, scale 0 (no effect) to 100 (complete control), read-out: Crabgrass, Large plant response rating) | pest or weed control at 125 g/ha (morningglory; pre-emergence, 0 = no effect, 100 = complete control, read-out: Morningglory plant response rating (0 to 100 scale))
100%: pest or weed control at 125 g/ha (barnyardgrass [1]; pre-emergence, 0 = no effect, 100 = complete control, read-out: Barnyardgrass plant response rating (0 to 100 scale)) | pest or weed control at 500 g/ha (barnyardgrass [1]; pre-emergence, visual rating, 0 = no effect, 100 = complete control, read-out: Plant response rating, Barnyardgrass) | pest or weed control at 500 g/ha (Surinam grass; pre-emergence, visual rating, 0 = no effect, 100 = complete control, read-out: Plant response rating, Surinam Grass) | pest or weed control at 125 g/ha (large crabgrass; pre-emergence, 0 = no effect, 100 = complete control, read-out: Crabgrass, Large plant response rating (0 to 100 scale)) | pest or weed control at 500 g/ha (large crabgrass; pre-emergence, visual rating, 0 = no effect, 100 = complete control, read-out: Plant response rating, Crabgrass, Large) | pest or weed control at 125 g/ha (lambsquarters; pre-emergence, 0 = no effect, 100 = complete control, read-out: Lambsquarters plant response rating (0 to 100 scale)) | pest or weed control at 500 g/ha (lambsquarters; pre-emergence, visual rating, 0 = no effect, 100 = complete control, read-out: Plant response rating, Lambsquarters) | pest or weed control at 125 g/ha (velvetleaf; pre-emergence, 0 = no effect, 100 = complete control, read-out: Velvetleaf plant response rating (0 to 100 scale)) | pest or weed control at 500 g/ha (velvetleaf; pre-emergence, visual rating, 0 = no effect, 100 = complete control, read-out: Plant response rating, Velvetleaf)
70%: pest or weed control at 500 g/ha (lambsquarters; post-emergence, postemergence, scale 0 to 100, 0 is no effect, 100 is complete control, read-out: Lambsquarters plant response rating)
10%: pest or weed control at 125 g/ha (Surinam grass; post-emergence, postemergence, visual rating, scale 0 (no effect) to 100 (complete control), read-out: Surinam Grass plant response rating) | pest or weed control at 125 g/ha (morningglory; post-emergence, postemergence, visual rating, scale 0 (no effect) to 100 (complete control), read-out: Morningglory plant response rating)
80%: pest or weed control at 125 g/ha (Surinam grass; pre-emergence, 0 = no effect, 100 = complete control, read-out: Surinam Grass plant response rating (0 to 100 scale)) | pest or weed control at 125 g/ha (cocklebur; pre-emergence, 0 = no effect, 100 = complete control, read-out: Cocklebur plant response rating (0 to 100 scale)) | plant injury at 125 g/ha (corn; pre-emergence, 0 = no effect, 100 = complete control, read-out: Corn plant response rating (0 to 100 scale)) | pest or weed control at 1000 g/ha [2]
50%: pest or weed control at 500 g/ha (Surinam grass; post-emergence, postemergence, scale 0 to 100, 0 is no effect, 100 is complete control, read-out: Surinam Grass plant response rating) | pest or weed control at 500 g/ha (cocklebur; [5]) | pest or weed control at 500 g/ha (blackgrass; 500 g ai/ha) | pest or weed control at 500 g/ha (wild oat; [7])
20%: pest or weed control at 125 g/ha (cocklebur; [5]) | plant injury at 125 g/ha (corn; post-emergence, postemergence, visual rating, scale 0 (no effect) to 100 (complete control), read-out: Corn plant response rating) | pest or weed control at 500 g/ha (large crabgrass; post-emergence, postemergence, scale 0 to 100, 0 is no effect, 100 is complete control, read-out: Crabgrass, Large plant response rating) | pest or weed control at 500 g/ha (morningglory; post-emergence, postemergence, scale 0 to 100, 0 is no effect, 100 is complete control, read-out: Morningglory plant response rating) | pest or weed control at 500 g/ha (morningglory; pre-emergence, visual rating, 0 = no effect, 100 = complete control, read-out: Plant response rating, Morningglory) | pest or weed control at 125 g/ha (velvetleaf; post-emergence, postemergence, visual rating, scale 0 (no effect) to 100 (complete control), read-out: Velvetleaf plant response rating)
30%: pest or weed control at 500 g/ha (barnyardgrass [1]; [4]) | plant injury at 500 g/ha (corn; post-emergence, postemergence, 500 g ai/ha, scale 0 to 100, 0 is no effect, 100 is complete control, read-out: Corn plant response rating) | pest or weed control at 125 g/ha (blackgrass; 125 g ai/ha) | plant injury at 125 g/ha (wheat; [6]) | plant injury at 500 g/ha (wheat; [7]) | pest or weed control at 125 g/ha (wild oat; [6])
60%: pest or weed control at 125 g/ha (lambsquarters; post-emergence, postemergence, visual rating, scale 0 (no effect) to 100 (complete control), read-out: Lambsquarters plant response rating) | pest or weed control at 500 g/ha (velvetleaf; post-emergence, postemergence, scale 0 to 100, 0 is no effect, 100 is complete control, read-out: Velvetleaf plant response rating)
90%: pest or weed control at 500 g/ha (cocklebur; pre-emergence, visual rating, 0 = no effect, 100 = complete control, read-out: Plant response rating, Cocklebur) | Corn plant response rating (crop injury, 0 = no effect, 100 = complete kill) at 500 g/ha (corn; pre-emergence, 500 g ai/ha, visual rating, 0 = no effect, 100 = complete control) | plant injury at 1000 g/ha (rice) | pest or weed control at 1000 g/ha (ducksalad) | pest or weed control at 1000 g/ha (barnyardgrass [3])
